Measurements: US20100311608A1, “METHOD TO PREPARE MAGNETIC BEADS CONJUGATED WITH SMALL COMPOUNDS” (RIKEN, priority 2009, published 2010)

System: THP-1 cells
Assay: Amount of TNF-α released from THP-1 cells
Type: cell-based, human
Conditions: free body, 37° C. for 4 hours, FIG. 8
Method: Human monocyte leukemia-derived THP-1 cells (ATCC) were cultured in an RPMI1640 medium (Invitrogen/GIBCO). To the medium, 10% fetal bovine serum (JRH Bioscience), 1 mM sodium pyruvate (Invitrogen/GIBCO), 100 units/mL penicillin, and 100 μg/mL streptomycin (Invitrogen/GIBCO) were added.
(1) The cultured Jurkat cells, derived from human T-lymphocyte leukemia cells, were recovered (1×10^6/mL), and the thus recovered cells were then centrifuged at 1000 rpm for 10 minutes. (2) After a supernatant had been removed, the residue was washed with PBS (137 mM NaCl, 3 mM KCl, 9 mM NaHPO4, 1.5 mM KH2PO4, pH 7.4). (3) The cells were suspended in 300 μL of Binding buffer ([…] Tris-HCl, 150 mM NaCl, protease inhibitor cocktail, pH 7.5). (4) The cells were disintegrated by an ultrasonic wave treatment, and the disintegration of the cells was then observed under a microscope. […] (6) The protein concentration in the cell extract of the supernatant was measured, and the extract was then diluted with Lysis buffer (137 mM NaCl, 3 mM KCl, 9 mM NaHPO4, 1.5 mM KH2PO4, protease inhibitor cocktail, pH 7.4), resulting in a final protein concentration of 5 mg/mL. […] The amount of TNF-α contained in this supernatant was measured. […] (9) 50 μL of Stop solution was added to the resultant, and the absorption spectrum at 450 nm was then measured. […]

Lipid A
responsiveness in the THP cells (TNF-α release): not so high
